# Assay results as given in publication PMC10552892, “Ebselen oxide and derivatives are new allosteric HER2 inhibitors for HER2‐positive cancers” (Molecular Oncology, 2023).
# Key:
# [1] = tested on: HBMECs overexpressing p95 HER2; assay: Proliferation of HBMECs overexpressing p95 HER2 (Incucyte); settings: 5 μM, Incucyte 5 days
# Procedure: 25.10^3 cells/96‐well transfected HBMECs or 9.10^3 cancer cells were seeded and monitored with an Incucyte S3 imaging system (Sartorius, Goettingen, Germany) using 10× objective every 2 h during 5 days. Confluency analyses were performed using the dedicated Incucyte analysis system.
# (D–F) Proliferation was assessed by Incucyte during 5 days. Data are mean ± SEM of a representative experiment out of two independent experiments. Two‐way ANOVA followed by Bonferroni's multiple comparison test, ***P < 0.001, ****P < 0.0001.
# (A-B) HBMECs transfected with empty vector (pRK5) or vectors encoding gD-HER2 WT, the truncated gD-
# Proliferation was assessed by Incucyte during 5 days. Representative micrographs are shown (A).
# Representative quantification of the proliferation (B) is shown where data are mean ± sem (n=8-12). Two-way
# ANOVA followed byBonferroni’s multiple comparison test, *** P<0.001, **** P<0.0001. Scale bars are 100 µM.
# vehicle, 5-10 µM Ebselen oxide or 5 µM AG1478. Proliferation was assessed by MTT assay during 3 days.
# Data are mean ± sem (n=3). Two-way ANOVA followed by Bonferroni’s multiple comparison test, * P<0.05 **
# [2] = target: T1, HER2 (pY1248) in SKOV3 (Homo sapiens, UniProt P04626); assay: HER2 activation in SKOV3 ovarian cancer cells, western blot; type: cell-based; settings: ebselen oxide 0–10 μM 24 h, AG1478 5 μM
# T1 construct: host or cells: SKOV3
# Procedure: Human bone marrow endothelial cells (HBMECs) kindly provided by Dr. B. Weksler (Weill Medical College of Cornell University, NY) were cultured as described previously. The human breast cancer cell lines [SKBR3 (RRID:CVCL_0033), BT474 (RRID:CVCL_0179), and MDA‐MB‐231 (RRID:CVCL_0062)], the human gastric [NCI‐87 (RRID:CVCL_1603)] and ovarian [SKOV3 (RRID:CVCL_0532)] cancer cell lines were obtained from the American Type Culture Collection (Manassas, VA) and were maintained in DMEM containing 10% FBS. All cell lines were cultured under 5% CO2 at 37 °C. HBMECs were transfected using Amaxa Inc nucleofector system (Kit V and U015 program). […]
# Fig. 3 Ebselen oxide inhibits HER2 activation and HER2‐dependent proliferation in gastric and ovarian HER2^+ cancer cells. (A) HER2‐positive NCI‐87 gastric cancer cells were treated with ebselen oxide (0–20 μM) for 24 h, lysed, and analyzed by western blot using anti‐pY1248‐HER2, HER2, and β‐tubulin antibodies. […] (B) HER2‐positive SKOV3 ovarian cancer cells were treated with ebselen oxide (0–10 μM) for 24 h, lysed, and analyzed by western blot using anti‐pY1248‐HER2, HER2, and ezrin antibodies. […] (C, D) Proliferation curves of NCI‐N87 gastric (C) or SKOV3 ovarian (D) cancer cells treated with vehicle or 7–10 μM ebselen oxide measured by MTT assay. […]
# [3] = target: T2, gD-HER2-WT (Homo sapiens, UniProt P04626); assay: Western blot of HBMECs overexpressing gD-HER2-WT; type: cell-based; settings: 5 μM, 24 h
# T2 construct: expressed in transfected cells; host or cells: HBMEC (human bone marrow endothelial cells)
# Procedure: Human bone marrow endothelial cells (HBMECs) kindly provided by Dr. B. Weksler (Weill Medical College of Cornell University, NY) were cultured as described previously. The human breast cancer cell lines [SKBR3 (RRID:CVCL_0033), BT474 (RRID:CVCL_0179), and MDA‐MB‐231 (RRID:CVCL_0062)], the human gastric [NCI‐87 (RRID:CVCL_1603)] and ovarian [SKOV3 (RRID:CVCL_0532)] cancer cell lines were obtained from the American Type Culture Collection (Manassas, VA) and were maintained in DMEM containing 10% FBS. All cell lines were cultured under 5% CO2 at 37 °C. HBMECs were transfected using Amaxa Inc nucleofector system (Kit V and U015 program). FBS was decreased to 1% to analyze HER2 activation status and HER2‐dependent cell proliferation in SKOV3 as previously described. Periodic tests for Mycoplasma and authentication were performed using commercially available kits.
# [4] = target: T3, JMHER2/FERME interaction (biot-JMHER2 peptide and GST-FERME, N-terminal FERM domain of ezrin) (Homo sapiens, UniProt P04626); assay: AlphaScreen competition of HER2 juxtamembrane peptide / ezrin FERM domain interaction; type: binding; settings: AlphaScreen, 20 h
# T3 construct: purchased Proteogenix
# Procedure: Biotinylated peptide derived from HER2 cytosolic juxtamembrane region (JMHER2, […] ) has been synthesized by Proteogenix (Schiltigheim, France). The binding reaction was described previously. Briefly, white 384‐well Optiplates (PerkinElmer, Whalham, MA, USA) were used to prepare GST‐FERME and biotinylated peptide in a binding buffer (PBS, pH 7.4, 5 mM MgCl2, and 0.02% CHAPS). GST‐FERME was incubated with biotinylated‐HER2 for 30 min at room temperature. AlphaScreen® Streptavidin Donor beads (20 μg·mL^−1) and Glutathione AlphaLISA® Acceptor Beads (20 μg·mL^−1) were added to the wells for overnight incubation in the dark and at room temperature. Light signal was detected with the EnVision® multilabel plate reader (PerkinElmer).
# Ebselen came out as an interesting hit. Ebselen is a synthetic organoselenium compound with the anti‐inflammatory and antioxidant property that has been evaluated in clinical trials for ischemic stroke and acute hearing loss. However, in vivo, ebselen rapidly reacts with peroxynitrite to form ebselen oxide. […] In addition, using surface plasmon resonance (SPR), we confirmed that both compounds could directly bind to JMHER2 (Fig. 1E,F). […] The slight decrease in HER2 expression was not significant. To examine whether HER2 inhibition by ebselen oxide was dependent on JMHER2/FERME interaction, we transfected HBMEC cells with a previously described glycoprotein D‐tagged HER2 form mutated on the critical amino acids involved in ERM binding (gD‐HER2‐EBM*).
# [5] = tested on: BT474; assay: MTT proliferation assay, BT474; type: cell-based, human; settings: 10 μM
# Procedure: (§1) Fig. 2 Ebselen oxide inhibits HER2 activation, cell proliferation, and anchorage‐independent growth of HER2^+ breast cancer cells. […] Blot and quantification of a representative experiment are shown out of 4 (A), 5 (B), or 2 (C) independent experiments. (D–F) Proliferation curves of HER2‐positive (SKBR3, D or BT474, E) or HER2‐negative (MDA‐MB‐231, F) breast cancer cell lines treated with vehicle or 10 μM ebselen oxide assessed by MTT assay. […] (G–I) Anchorage‐independent growth of SKBR3 (G), BT474 (H), or MDA‐MB‐231 (I) cells treated with vehicle or 10 μM ebselen oxide. […] Scale bars are […].
# [6] = tested on: BT474; assay: Soft agar anchorage-independent growth, BT474; type: cell-based, human; settings: 10 μM
# Procedure: (§2) A bottom layer of 0.8% agarose in DMEM supplemented with 20% FBS and penicillin/streptomycin was added to 24‐well plates before seeding 25.10^3 cells per well in a 0.6% agarose top layer. Cells were treated with a vehicle or with 10 μM ebselen oxide or derivatives. Treatments were renewed 3 times a week. After 6 weeks, colonies were visualized with a phase‐contrast microscope and their number and size were quantified using IMAGEJ software.
# as §1
# [7] = tested on: SKBR3; assay: Soft agar anchorage-independent growth, SKBR3; type: cell-based, human; settings: 10 μM
# Procedure: as §2, §1
# T2 sequence (P04626 23-1255): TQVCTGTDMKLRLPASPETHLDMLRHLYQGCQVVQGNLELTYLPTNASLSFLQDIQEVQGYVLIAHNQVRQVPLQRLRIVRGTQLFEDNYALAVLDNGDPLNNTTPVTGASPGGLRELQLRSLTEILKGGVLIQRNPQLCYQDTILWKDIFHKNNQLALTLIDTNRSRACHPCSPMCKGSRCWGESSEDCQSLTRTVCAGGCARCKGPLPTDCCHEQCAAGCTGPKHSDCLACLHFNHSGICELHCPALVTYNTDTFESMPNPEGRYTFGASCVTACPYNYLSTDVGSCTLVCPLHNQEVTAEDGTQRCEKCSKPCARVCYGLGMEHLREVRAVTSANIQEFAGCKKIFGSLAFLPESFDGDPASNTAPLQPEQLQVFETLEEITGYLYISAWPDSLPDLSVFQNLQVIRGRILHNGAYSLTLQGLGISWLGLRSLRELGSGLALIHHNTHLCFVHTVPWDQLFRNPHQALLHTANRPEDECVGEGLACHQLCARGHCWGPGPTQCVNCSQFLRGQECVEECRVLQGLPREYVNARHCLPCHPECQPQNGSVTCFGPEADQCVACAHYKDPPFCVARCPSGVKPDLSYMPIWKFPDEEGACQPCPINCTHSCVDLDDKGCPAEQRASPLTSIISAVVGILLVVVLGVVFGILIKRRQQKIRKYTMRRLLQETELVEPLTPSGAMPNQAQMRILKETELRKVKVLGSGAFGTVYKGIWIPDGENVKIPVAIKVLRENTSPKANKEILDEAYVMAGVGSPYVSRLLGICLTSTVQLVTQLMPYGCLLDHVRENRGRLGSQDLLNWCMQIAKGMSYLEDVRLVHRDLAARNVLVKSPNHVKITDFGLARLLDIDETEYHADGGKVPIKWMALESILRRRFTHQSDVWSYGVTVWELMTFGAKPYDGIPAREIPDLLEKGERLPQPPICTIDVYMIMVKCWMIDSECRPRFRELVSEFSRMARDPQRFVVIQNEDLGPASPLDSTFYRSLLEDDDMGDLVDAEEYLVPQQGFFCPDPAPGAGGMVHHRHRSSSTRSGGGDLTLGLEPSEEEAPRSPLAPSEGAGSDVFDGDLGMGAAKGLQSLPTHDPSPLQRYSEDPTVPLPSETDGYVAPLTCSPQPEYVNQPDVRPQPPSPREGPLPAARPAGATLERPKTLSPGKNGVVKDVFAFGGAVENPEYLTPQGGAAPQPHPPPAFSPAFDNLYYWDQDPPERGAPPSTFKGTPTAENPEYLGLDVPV
# T1 sequence (P04626 23-1255): as above
structure (smiles),measurement,setting,value
"O=C1c2ccccc2[Se](=O)N1c1ccccc1 (stereo not drawn) [Ebselen oxide, ebselen oxide]",Inhibition of cell proliferation induced by overexpression of p95 HER2,[1],almost totally inhibited
same,Effect on HER2 activation,[2],strongly blocked
same,Reduction of phosphorylation level of gD-HER2-WT,[3]; HBMEC,40%
same,Reduction in the activation of ERK protein kinase,[3]; HBMEC gD-HER2-WT,65%
same,IC50,[4],634 nM
same,EC50,"[4]; read-out: EC50, μM (inhibition of HER2-FERME interaction)",0.634 µM
same,Reduction of proliferation rate,[5],55%
same,Reduction in the size of micro-colonies,[6],> 50%
same,Reduction in the size of micro-colonies,[7],more than 40%
